Assay in all cases: NCI anticancer screen, dose series, 48 h
For experiment [1], the system named is CCRF-CEM leukemia.
For experiment [2], the system named is HCC-2998 colon.
For experiment [3], the system named is HOP-92 NSCLC.
Experiment [4] has as its system KM12 colon.
Experiment [5] relates to MALME-3M melanoma.
The subject of experiment [6] is OVCAR-5 ovarian.
Experiment [7] has as its system SF-268 CNS.
In experiment [8] the test system is SK-MEL-28 melanoma.
Experiment [9] relates to SNB-75 CNS.
Experiment [10] has as its system UACC-257 melanoma.

SMILES strings stand for the structures.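 Where inhibition never reached the appropriate level, the endpoint shown equals the highest concentration tested. Otherwise, values were interpolated linearly from a five-concentration, 48-hour dose response in 96-well plates. GI50 = concentration required for 50% inhibition of growth. TGI: total growth inhibition.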

With `CC(=O)Oc1ccc2c(c1)oc1c3ccc(OC(C)=O)cc3n(C)c(=O)c21`, the TGI was greater than 100 µM in experiment [1]; 57.1 µM in experiment [2]; greater than 100 µM in [3]; 20.6 µM in experiment [4]; 31.1 µM in experiment [5]; greater than 100 µM in [6]. The TGI in experiment [7] is 78.2 µM; in experiment [8] it was greater than 100 µM; in experiment [9], 4.16 µM; in [10], greater than 100 µM.
Turning to `O=[N+]([O-])c1ccccc1NC1c2ccccc2Oc2ccccc21`, the GI50 was 4.44 µM in [1]; 75.2 µM in experiment [2]; 4.22 µM in experiment [3]; 4.34 µM in experiment [4]; 7.13 µM in experiment [5]; 8.06 µM in experiment [7]. The results for the GI50 in experiment [8], in experiment [9] and in experiment [10] were 4.85 µM, 2.94 µM and 7.2 µM, respectively. Further, the TGI in experiment [1], in [2], in experiment [3], in experiment [4], in experiment [5] and in experiment [7] was greater than 100 µM each time. The TGI in experiment [8] was greater than 100 µM; in experiment [9] it was 38.6 µM; in experiment [10], greater than 100 µM.
`CCN(CC)CCCNc1ncc(C)c2[nH]c3ccncc3c12`: the TGI in [1] was greater than 71.5 µM; in experiment [2], 23.6 µM; in [3] it was 26.3 µM; in experiment [4], 42 µM; in experiment [5] it was 27.4 µM; in experiment [6] it was 26.7 µM. The TGI stood at 32.4 µM in [7], 27.4 µM in experiment [8], 27.7 µM in experiment [9] and 18.5 µM in experiment [10].
`COC(=O)c1cccc(N[C@@H]2c3cc4c(cc3C(c3cc(OC)c(O)c(OC)c3)[C@H]3C(=O)OCC32)OCO4)c1` (stereo partly specified): the TGI in [1] was 5.23 µM; in experiment [2], 8.09 µM; in experiment [3] it was 7.14 µM; in experiment [4], 10.2 µM; in [5], 27.8 µM; in experiment [6], greater than 100 µM. Moreover, the TGI in experiment [7] was greater than 42.5 µM; in experiment [8] it was greater than 100 µM; in experiment [9] it was greater than 21 µM; in experiment [10], 7.82 µM.
For `N=C(N)c1ccc(-c2ccc(-c3ccccc3)s2)cc1`, the GI50 was 1.97 µM in experiment [1]; 1.55 µM in [3]; 1.45 µM in experiment [5]; 1.59 µM in experiment [6]; 1.67 µM in experiment [8]. In addition, the TGI in experiment [1] was determined as 4.57 µM; in experiment [3], 3.34 µM; in [5], 2.83 µM; in experiment [6], 2.94 µM; in experiment [8] it was 3.13 µM.
With `S=P1(N2CCCCC2)Oc2ccc3ccccc3c2-c2c(ccc3ccccc23)O1`, the TGI in [1] is greater than 31.6 µM; in experiment [2] it was greater than 100 µM; in experiment [3], greater than 100 µM; in [4], greater than 100 µM; in experiment [5], greater than 59.6 µM; in [6], greater than 100 µM. Besides, the TGI is greater than 100 µM in experiment [7], greater than 100 µM in [8], greater than 92.1 µM in experiment [9] and greater than 100 µM in experiment [10].
Turning to `CCCCCCCC/C=C\CCCCCCCC(=O)O`, the TGI in [1] was 197 µM; in [2] it was greater than 500 µM; in [3], greater than 5 µM; in [4], greater than 500 µM; in [5], greater than 500 µM; in experiment [6], greater than 500 µM. For the same molecule, the TGI in experiment [7] came to 192 µM; in [8] it was 329 µM; in experiment [9], 29.6 µM; in experiment [10], 201 µM.
For the molecule `Cc1cc(C)c2c(c1)CC1(Cc3c(C)ccc(C)c3C1=O)C2=O` (stereo unspecified), the TGI in experiment [1], in [2], in experiment [3], in experiment [4], in experiment [5] and in [6] was greater than 100 µM each time. For the same molecule, the TGI in experiment [7], in experiment [8], in experiment [9] and in experiment [10] was greater than 100 µM throughout.
In the case of `O=C(O)CS`, the TGI in experiment [1], in experiment [2], in experiment [3], in [4], in experiment [5] and in experiment [6] was greater than 100 µM throughout. Also, the TGI in [7], in [8], in [9] and in [10] was greater than 100 µM each time.
Turning to `COc1cc(/C=C/c2cc(/C=C/c3ccc(O)c(OC)c3)nc(N)n2)ccc1O`, the GI50 was 1.75 µM in [2]; 1.26 µM in experiment [3]; 1.63 µM in experiment [4]; 2.71 µM in [5]; 2.03 µM in experiment [6]; 2.11 µM in experiment [7]. Further, the GI50 in experiment [8] is 1.85 µM; in experiment [9] it was 1.26 µM; in experiment [10] it was 1.53 µM. Further, the TGI in [2] turned out to be 3.19 µM; in experiment [3], 5.19 µM; in experiment [4], 3.32 µM; in [5] it was 6.76 µM; in [6], 4.33 µM; in [7] it was 15.6 µM. In addition, the TGI was found to be 4.53 µM in experiment [8], 3.34 µM in experiment [9] and 3.5 µM in experiment [10].
For the molecule `CCNc1nnc(-c2nsc3ccccc23)s1`, the TGI in [1] was greater than 100 µM; in experiment [2], greater than 100 µM; in experiment [3] it was greater than 100 µM; in [4], greater than 100 µM; in [6], greater than 100 µM; in experiment [7] it was 80.9 µM. Moreover, the TGI was greater than 100 µM in experiment [8], 36.1 µM in [9] and greater than 100 µM in experiment [10].
In the case of `O=C1C=CC2=[N+]([O-])C(c3ccccc3)(c3ccccc3)C(=Nc3ccccc3)C2=C1`, the TGI in experiment [1] came out at 2.18 µM; in experiment [2], 19.6 µM; in [3], 3.48 µM; in [5] it was 4.2 µM; in [6] it was 30 µM; in experiment [7], 11.4 µM. Besides, the TGI worked out at 8.74 µM in experiment [9] and 4.11 µM in experiment [10].
For `C=C1C(=O)C[C@@]23CCC[C@@]12CC(OCOC)C3` (stereo partly specified), the TGI in experiment [1] was determined as 6.81 µM; in [2], 12.3 µM; in [3], 7.43 µM; in [4], 9.48 µM; in [5] it was 8.38 µM; in [6], 8.26 µM. Besides, the TGI in [7] turned out to be 17.5 µM; in experiment [8] it was 8.14 µM; in [9] it was 6.41 µM; in experiment [10] it was 7.82 µM.
On to `CC(C)CCC[C@@H](C)C1CCC2[C@@H]3CC=C4C[C@@H](C(=O)NCC[N+](C)(C)CCCS(=O)(=O)[O-])CC[C@]4(C)C3CC[C@@]21C` (stereo partly specified), for which the TGI in experiment [1] came out at 31.5 µM; in [2], 35.2 µM; in experiment [4] it was 31.5 µM; in experiment [5], 33.3 µM; in [7], 37.8 µM; in experiment [8], 34.5 µM. For the same molecule, the values for the TGI in experiment [9] and in [10] were 35.1 µM and 34.8 µM, respectively.
